Experimental data: article PMC11679793, “Structure-Activity Relationship Study of Majusculamide D: Overcoming Metabolic Instability and Severe Toxicity with a Fluoro Analogue” (Marine Drugs, 2024)
Converted amounts (≈) assume the structure as drawn. Where two headings read alike, the source gives them in different places.

Key:
PANC-1 cells = assay: MTT cell activity assay (inhibitory activity against PANC-1 cells); format: cell-based
Method: A total of 3000 PANC-1 cells were resuspended in 200 μL of culture medium and seeded into 96-well plates. After 24 h, the cells were treated with the compound and incubated for an additional 72 h. Following the incubation, 20 μL of 5 mg/mL MTT solution (Solarbio, China) was added to each well in the dark, and the cells were incubated for another 4 h. After incubation, the culture medium was discarded, and the wells were washed with PBS to remove any residual medium. Then, 200 μL of DMSO was added to each well to fully dissolve the formazan crystals, and the solution was mixed thoroughly. The absorbance was measured at 492 nm/570 nm, and the data were analyzed using GraphPad Prism.

[1] = Preliminary water solubility test; format: physicochemical; settings: thermodynamic from solid, 25 °C, ultrasonic treatment 30 min, visual
PANC-1 xenograft tumor = tested on: PANC-1 xenograft tumor
Method: Furthermore, a xenografted murine subcutaneous tumor model was employed to evaluate the effects of majusculamide D and the optimized analogues 1c and 1n (Figure 1B). PANC1-bearing BALB/c nude mice were separated randomly, with a total of six mice in each group. Gemcitabine was chosen as the positive drug; the mice were then administered intravenous doses of 1c (5 mg/kg), 1n (5 mg/kg), 1a (5 mg/kg), and gemcitabine (20 mg/kg) every other day for 24 days.
A total of 4 × 10^6 PANC-1 cells suspended in 100 μL PBS were subcutaneously injected into the right shoulder region of BALB/c nude mice. When the tumor volume reached approximately 200 mm^3, the mice were euthanized, and the tumor tissues were harvested and designated as F1 generation. Tumor tissues were then cut into small cubes measuring approximately 3 × 3 × 3 mm, which were implanted into new BALB/c mice to propagate the tumors. This procedure was repeated to obtain the F2 generation of tumors. Finally, mice bearing F3 generation transplant tumors were used for drug treatment experiments. When the tumor volume reached approximately 80–100 mm^3, the mice were randomly divided into five groups (n = 6): control group, 5 mg/kg compound 1a group, 5 mg/kg compound 1c group, 5 mg/kg compound 1n group, and 20 mg/kg gemcitabine group. The compounds 1a, 1c, and 1n were dissolved in DMSO and then diluted with 0.9% physiological saline to achieve a final concentration of 0.5 mg/mL as the dosing concentration. Gemcitabine was dissolved directly in 0.9% saline to achieve a final concentration of 2 mg/mL as the dosing concentration. The compounds were administered intravenously every two days, alternating between the left and right tail veins to minimize vein damage. Injections were performed using ultra-fine syringes (30G needles) to reduce stress and ensure consistent delivery. The body weight and tumor volume of the mice were measured every four days. On day 24, the mice were euthanized, and the tumor weights were recorded. Tumor volume (V) was calculated using the formula: V = (ab^2)/2, with “a” representing the long diameter of the tumor and “b” representing the short diameter of the tumor. […] Tumor weight was used to calculate the tumor inhibition rate (Figure 1G).

[2] = Stability in mouse plasma assay; format: in vitro ADME; settings: 1 μM, 37 °C, 2 h incubation
Method: Thaw plasma at room temperature and vortex for 3–5 s. Centrifuge at 3000 rpm at 10 °C for 10 min, and carefully transfer the supernatant to a new Eppendorf tube. Preincubate the plasma at 37 °C for 10 min. Prepare a series of test substances by adding 3 μL of the compound (100 μM) to 297 μL of plasma to achieve a final concentration of 1 μM, ensuring that the DMSO concentration in plasma is 1%. Propantheline bromide is used as a positive control. Incubate the mixture at 37 °C, and at specified time points (0, 1, 2, 4, and 24 h), take 50 μL of the plasma sample. To terminate the reaction, add 250 μL of acetonitrile (containing an internal standard), vortex thoroughly, and centrifuge at 16,000 rcf (4 °C) for 10 min. Collect 130 μL of the supernatant and dilute with 70 μL of pure water for LC-MS/MS analysis. The concentration of the test substances in plasma samples was determined using LC-MS/MS. The stability of the test substance in plasma was evaluated by measuring the remaining percentage of the compound in the plasma over time.

[3] = Homo sapiens, PANC-1, 72 h, read-out: IC50 (nM), inhibitory activity against PANC-1 cells (Table 1), PANC-1 cells, 72 h incubation, mean ± SD, n = 3
[4] = Homo sapiens, PANC-1 cells, 72 h incubation, mean ± SD, n = 3, read-out: IC50 (nM), inhibitory activity against PANC-1 cells (Table 1)
[5] = read-out: IC50 (nM), inhibitory activity against PANC-1 cells (Table 1), PANC-1 cells, 72 h incubation, mean ± SD, n = 3
[6] = Homo sapiens, PANC-1 cells, 72 h incubation, mean ± SD, n = 3, Table 2 series, read-out: IC50 (nM), inhibitory activity against PANC-1 cells (Table 2)

| SMILES | IC50 (PANC-1 cells; [6]) [nM] | solubility [1] [µg/mL] | further results |
| --- | --- | --- | --- |
| CCCCC(C)CC(C)C(=O)N(C)C(Cc1ccc(OC)cc1)C(=O)NC(COC(C)=O)C(=O)N(C)C(C(=O)N1CC(O)CC1C(=O)N1C(=O)C=CC1C)C(C)C (centres unmarked) [Compound 1d] | – | – | IC50 (PANC-1 cells; [3]): 2.15 ± 0.37 nM |
| CCCCC(C)CC(C)C(=O)N(C)C(Cc1ccc(OC)cc1)C(=O)NC(C(=O)N(C)C(C(=O)N1CC(O)CC1C(=O)N1C(=O)C=CC1C)C(C)C)C(C)NC(C)=O (centres unmarked) [Compound 1e] | – | – | IC50 (PANC-1 cells; [4]): 2.94 ± 0.93 nM |
| CCCCC(C)CC(C)C(=O)N(C)C(Cc1ccccc1)C(=O)NC(C(=O)N(C)C(C(=O)N1CC(O)CC1C(=O)N1C(=O)C=CC1C)C(C)C)C(C)OC(C)=O (centres unmarked) [Compound 1h] | – | – | IC50 (PANC-1 cells; [3]): 72 ± 21.9 nM |
| CCCCC(C)CC(C)C(=O)N(C)C(Cc1ccc(-c2ccccc2)cc1)C(=O)NC(C(=O)N(C)C(C(=O)N1CC(O)CC1C(=O)N1C(=O)C=CC1C)C(C)C)C(C)OC(C)=O (centres unmarked) [Compound 1j] | – | – | IC50 (PANC-1 cells; [3]): < 1 nM; IC50 (PANC-1 cells; [5]): 0.7 ± 0.07 nM |
| CCCCC(C)CC(C)C(=O)N(C)C(Cc1ccc(OC)cc1)C(=O)NC(C(=O)N(C)C(C(=O)N1CC(F)CC1C(=O)N1C(=O)C=CC1C)C(C)C)C(C)OC(C)=O (centres unmarked) [Compound 1k] | – | – | IC50 (PANC-1 cells; [3]): 2.55 ± 0.55 nM |
| CCCCC(C)CC(C)C(=O)N(C)C(Cc1ccc(OC)cc1)C(=O)NC(C(=O)N(C)C(C(=O)N1CC(O)CC1C(=O)N1CC=CC1=O)C(C)C)C(C)OC(C)=O (centres unmarked) [Compound 1l] | – | – | IC50 (PANC-1 cells; [3]): 134 ± 78.2 nM |
| CCCCC(C)CC(C)C(=O)N(C)C(Cc1ccc(OC)cc1)C(=O)NC(C(=O)N(C)C(C(=O)N1CC(O)CC1C(=O)N1C(=O)C=CC1C)C(C)C)C(C)OC(C)=O (centres unmarked) [Compound 1m] | – | – | IC50 (PANC-1 cells; [5]): 4.68 ± 0.59 nM |
| CCCCC(C)CC(C)C(=O)N(C)C(Cc1ccc(OC)cc1)C(=O)NC(C(=O)N(C)C(C(=O)N1CC(O)CC1C(=O)N1C(=O)C=CC1C)C(C)C)C(C)O (centres unmarked) [Compound 14a] | – | – | IC50 (PANC-1 cells; [3]): 1160 ± 195 nM |
| CCCCC(C)CC(C)C(=O)N(C)C(Cc1ccc(OC)cc1)C(=O)NC(C(=O)N(C)C(C(=O)N1CC(O)CC1C(=O)N1C(=O)C=CC1C)C(C)C)C(C)NC(=S)NC (centres unmarked) [Compound 14b] | – | – | IC50 (PANC-1 cells; [4]): 1.06 ± 0.35 nM |
| CCCCC(C)CC(C)C(=O)N(C)C(Cc1ccc(O)cc1)C(=O)NC(C(=O)N(C)C(C(=O)N1CC(O)CC1C(=O)N1C(=O)C=CC1C)C(C)C)C(C)OC(C)=O (centres unmarked) [Compound 14c] | – | – | IC50 (PANC-1 cells; [3]): 5.31 ± 1.46 nM |
| CCCC[C@@H](C)C[C@@H](C)C(=O)N(C)[C@@H](Cc1ccc(OC)cc1)C(=O)N[C@H](C(=O)N(C)[C@H](C(=O)N1C[C@@H](O)C[C@H]1C(=O)N1C(=O)C=C[C@@H]1C)C(C)C)[C@@H](C)NC(=O)[C@@H]1CCCN1 [Compound 16a] | 40.8 ± 14.1 | 210 (≈ 242 µM) | – |
| CCCC[C@@H](C)C[C@@H](C)C(=O)N(C)[C@@H](Cc1ccc(OC)cc1)C(=O)N[C@H](C(=O)N(C)[C@H](C(=O)N1C[C@@H](O)C[C@H]1C(=O)N1C(=O)C=C[C@@H]1C)C(C)C)[C@@H](C)NC(=O)[C@@H](N)[C@@H](C)O [Compound 16b] | 116 ± 54 | 410 (≈ 471 µM) | – |
| CCCC[C@@H](C)C[C@@H](C)C(=O)N(C)[C@@H](Cc1ccc(OC)cc1)C(=O)N[C@H](C(=O)N(C)[C@H](C(=O)N1C[C@@H](O)C[C@H]1C(=O)N1C(=O)C=C[C@@H]1C)C(C)C)[C@@H](C)NC(=O)[C@@H](N)Cc1c[nH]c2ccccc12 [Compound 16c] | 34.4 ± 4.5 | 200 (≈ 209 µM) | – |
| CCCC[C@@H](C)C[C@@H](C)C(=O)N(C)[C@@H](Cc1ccc(OC)cc1)C(=O)N[C@H](C(=O)N(C)[C@H](C(=O)N1C[C@@H](O)C[C@H]1C(=O)N1C(=O)C=C[C@@H]1C)C(C)C)[C@@H](C)NC(=O)CNC [Compound 16d] | 16.2 ± 6.72 | 810 (≈ 964 µM) | – |
| CCCC[C@@H](C)C[C@@H](C)C(=O)N(C)[C@@H](Cc1ccc(OC)cc1)C(=O)N[C@H](C(=O)N(C)[C@H](C(=O)N1C[C@@H](O)C[C@H]1C(=O)N1C(=O)C=C[C@@H]1C)C(C)C)[C@@H](C)NC(=O)[C@@H](N)CC(C)C [Compound 16e] | 34.2 ± 6.36 | 230 (≈ 261 µM) | – |
| CCCC[C@@H](C)C[C@@H](C)C(=O)N(C)[C@@H](Cc1ccc(OC)cc1)C(=O)N[C@H](C(=O)N(C)[C@H](C(=O)N1C[C@@H](O)C[C@H]1C(=O)N1C(=O)C=C[C@@H]1C)C(C)C)[C@@H](C)NC(=O)[C@@H](N)CCSC [Compound 16f] | 13.1 ± 6.3 | 170 (≈ 189 µM) | – |
| CCCC[C@@H](C)C[C@@H](C)C(=O)N(C)[C@@H](Cc1ccc(OC)cc1)C(=O)N[C@H](C(=O)N(C)[C@H](C(=O)N1C[C@@H](O)C[C@H]1C(=O)N1C(=O)C=C[C@@H]1C)C(C)C)[C@@H](C)NC(=O)CN [Compound 16g] | 43.1 ± 29.8 | 160 (≈ 194 µM) | – |
| CCCC[C@@H](C)C[C@@H](C)C(=O)N(C)[C@@H](Cc1ccc(OC)cc1)C(=O)N[C@H](C(=O)N(C)[C@H](C(=O)N1C[C@@H](O)C[C@H]1C(=O)N1C(=O)C=C[C@@H]1C)C(C)C)[C@@H](C)NC(=O)[C@H](C)N [Compound 16h] | 79.9 ± 45.9 | 360 (≈ 429 µM) | – |
| CCCC[C@@H](C)C[C@@H](C)C(=O)N(C)[C@@H](Cc1ccc(OC)cc1)C(=O)N[C@H](C(=O)N(C)[C@H](C(=O)N1C[C@@H](O)C[C@H]1C(=O)N1C(=O)C=C[C@@H]1C)C(C)C)[C@@H](C)NC(=O)[C@@H](N)CCC(N)=O [Compound 16i] | 740 ± 713 | 530 (≈ 591 µM) | – |
| CCCC[C@@H](C)C[C@@H](C)C(=O)N(C)[C@@H](Cc1ccc(OC)cc1)C(=O)N[C@H](C(=O)N(C)[C@H](C(=O)N1C[C@@H](O)C[C@H]1C(=O)N1C(=O)C=C[C@@H]1C)C(C)C)[C@@H](C)NC(=O)[C@@H](N)CO [Compound 16j] | 184 ± 33.2 | 360 (≈ 421 µM) | – |
| CCCC[C@@H](C)C[C@@H](C)C(=O)N(C)[C@@H](Cc1ccc(OC)cc1)C(=O)N[C@H](C(=O)N(C)[C@H](C(=O)N1C[C@@H](O)C[C@H]1C(=O)N1C(=O)C=C[C@@H]1C)C(C)C)[C@@H](C)NC(=O)C1CCC(=O)N1 (some centres unmarked) [Compound 16k] | 472 ± 69.7 | 330 (≈ 375 µM) | – |
| CCCC[C@@H](C)C[C@@H](C)C(=O)N(C)[C@@H](Cc1ccc(OC)cc1)C(=O)N[C@H](C(=O)N(C)[C@H](C(=O)N1C[C@@H](O)C[C@H]1C(=O)N1C(=O)C=C[C@@H]1C)C(C)C)[C@@H](C)NC(=O)[C@@H](N)Cc1ccccc1 [Compound 16l] | 55.4 ± 14.7 | 130 (≈ 142 µM) | – |
| CCCC[C@@H](C)C[C@@H](C)C(=O)N(C)[C@@H](Cc1ccc(OC)cc1)C(=O)N[C@H](C(=O)N(C)[C@H](C(=O)N1C[C@@H](O)C[C@H]1C(=O)N1C(=O)C=C[C@@H]1C)C(C)C)[C@@H](C)NC(=O)[C@@H](N)Cc1ccc(O)cc1 [Compound 16m] | 278 ± 14.9 | 160 (≈ 172 µM) | – |
| Nc1ccn([C@@H]2O[C@H](CO)[C@@H](O)C2(F)F)c(=O)n1 [Gemcitabine, reference compound] | – | – | tumor inhibition rate (%) (PANC-1 xenograft tumor; calculated from tumor weight, day 24, 1a, 1c, 1n 5 mg/kg, gemcitabine 20 mg/kg i.v.): 51.0%; tumor weight (PANC-1 xenograft tumor; day 24, i.v. every other day, 1a, 1n 5 mg/kg, gemcitabine 20 mg/kg, mean ± SD): 0.548 ± 0.153 g; tumor volume (PANC-1 xenograft tumor; mouse, in vivo): 561.1 ± 177.3 mm^3 |
| CC(C)[N+](C)(CCOC(=O)C1c2ccccc2Oc2ccccc21)C(C)C [bromopropyl, Propantheline bromide, reference compound] | – | – | remaining percentage in mouse plasma after 2 h [2]: 0.90% |
